Broadly, the viability is a read-out of living cells in per cent, often relative to untreated cells.

This data set can be described thus: in vitro. Particulars: human, hek293t cells.
As to `C=CC(=O)NCc1ccc(OC)cc1` [1-K10, N-[(4-methoxyphenyl)methyl]prop-2-enamide], the viability at 48 h, 25 µM amounted to 92%.
For `Cc1ccc2nc(-c3ccc(N4C(=O)C=CC4=O)cc3)sc2c1` [10-K18, 1-[4-(6-methyl-1,3-benzothiazol-2-yl)phenyl]-2,5-dihydro-1H-pyrrole-2,5-dione] the value was 107%; for `COc1ccc([N+](=O)[O-])cc1NC(=O)CCl` [4-P17, 2-chloro-N-(2-methoxy-5-nitrophenyl)acetamide], 0.714%.
For `C=CC(=O)N1CCCN(S(N)(=O)=O)CC1` [3-K10, 4-(prop-2-enoyl)-1,4-diazepane-1-sulfonamide] the value was 98.5%.
The value for `CCOC(=O)C(C#N)=Cc1ccc(N2C(=O)C=CC2=O)cc1` [10-N11, ethyl 2-cyano-3-[4-(2,5-dioxo-2,5-dihydro-1H-pyrrol-1-yl)phenyl]prop-2-enoate] was 93.1%; that for `CC(Cl)C(=O)N(C)Cc1nccn1Cc1ccccc1` (stereo not shown) [6-J09, N-[(1-benzyl-1H-imidazol-2-yl)methyl]-2-chloro-N-methylpropanamide] was 91.5%; that for `COc1ccc([C@H]2C[C@H](NC(=O)C(C)Cl)C2)cc1F` (stereo partly shown) [6-F17, 2-chloro-N-[(1r,3r)-3-(3-fluoro-4-methoxyphenyl)cyclobutyl]propanamide] was 91.5%.
In the case of `N#CC(=Cc1ccco1)C(=O)NC1CCN(c2ccc(F)cc2F)C1` (stereo not shown) [9-L09, 2-cyano-N-[1-(2,4-difluorophenyl)pyrrolidin-3-yl]-3-(furan-2-yl)prop-2-enamide], the viability at 48 h, 25 µM was 111%.
`CCOc1ccc(N2C(=O)C=CC2=O)cc1` [10-A14, 1-(4-ethoxyphenyl)-2,5-dihydro-1H-pyrrole-2,5-dione]: the viability at 48 h, 25 µM was 4.27%.
On to `O=C(CCl)NC(c1ccccc1)C1CCCC1` (stereo not shown) [6-O18, 2-chloro-N-[cyclopentyl(phenyl)methyl]acetamide], for which the viability at 48 h, 25 µM amounted to 8.29%.
For the compound `N#CC1=C(N2CCOCC2)SC(c2ccc([N+](=O)[O-])cc2)NC1=O` (stereo not shown) [9-D08, 6-(morpholin-4-yl)-2-(4-nitrophenyl)-4-oxo-3,4-dihydro-2H-1,3-thiazine-5-carbonitrile], the viability at 48 h, 25 µM came out at 112%.
`C=CC(=O)N1CCc2c(nnn2CCOC)C1` [1-N05, 1-[1-(2-methoxyethyl)-1H,4H,5H,6H,7H-[1,2,3]triazolo[4,5-c]pyridin-5-yl]prop-2-en-1-one]: the viability at 48 h, 25 µM stood at 105%.
In the case of `CC(NC(=O)C(C#N)=Cc1ccc(C(F)(F)F)cc1)c1ccccc1` (stereo not shown) [9-L21, 2-cyano-N-(1-phenylethyl)-3-[4-(trifluoromethyl)phenyl]prop-2-enamide], the viability at 48 h, 25 µM was 2.11%.
Regarding `C=CC(=O)NC1COCC1C` (stereo not shown) [1-D06, N-(4-methyloxolan-3-yl)prop-2-enamide], the viability at 48 h, 25 µM was 77.2%.
On to `O=C(CCl)N(Cc1ccccc1)Cc1cc2n(n1)CCCC2` [5-L03, N-benzyl-2-chloro-N-({4H,5H,6H,7H-pyrazolo[1,5-a]pyridin-2-yl}methyl)acetamide], for which the viability at 48 h, 25 µM came to 0.904%.
For `O=C1C=CC(=O)N1c1ccc(Oc2ccccc2)cc1` [10-F17, 1-(4-phenoxyphenyl)-2,5-dihydro-1H-pyrrole-2,5-dione], the viability at 48 h, 25 µM is 73.6%.
As for `N#CC(=Cc1ccccc1[N+](=O)[O-])C(=O)Nc1ccc2c(c1)OCCO2` [9-O20, 2-cyano-N-(2,3-dihydro-1,4-benzodioxin-6-yl)-3-(2-nitrophenyl)prop-2-enamide], the viability at 48 h, 25 µM was 108%.
Take `COC(=O)[C@H]1[C@@H](C(=O)CCl)C1(C)C` (racemic) [10-A11, rac-methyl (1R,3S)-3-(2-chloroacetyl)-2,2-dimethylcyclopropane-1-carboxylate]: the viability at 48 h, 25 µM was 74.8%.
The value for `C=CC(=O)NCc1ccc(C(=O)N2CCC(c3nnc(C)o3)CC2)cc1` [2-M18, N-({4-[4-(5-methyl-1,3,4-oxadiazol-2-yl)piperidine-1-carbonyl]phenyl}methyl)prop-2-enamide] was 87.6%; that for `CCn1ccc(CN(C)C(=O)CCl)n1` [5-K06, 2-chloro-N-[(1-ethyl-1H-pyrazol-3-yl)methyl]-N-methylacetamide] was 1.77%.
The value for `Cc1cc(C(=O)CCl)c(C)n1C(C)c1ccccc1` (stereo not shown) [10-P17, 2-chloro-1-[2,5-dimethyl-1-(1-phenylethyl)-1H-pyrrol-3-yl]ethan-1-one] was 113%; that for `COc1ccc(N(Cc2cccs2)C(=O)CCl)cc1` [5-O17, 2-chloro-N-(4-methoxyphenyl)-N-[(thiophen-2-yl)methyl]acetamide] was 0.692%; that for `N#CC(=Cc1ccc(C#N)cc1)C(=O)Nc1ccccc1Cl` [9-O17, N-(2-chlorophenyl)-2-cyano-3-(4-cyanophenyl)prop-2-enamide] was 131%.
For `NC(=O)COc1ccc(C(=O)CCl)cc1` [10-M07, 2-[4-(2-chloroacetyl)phenoxy]acetamide] the value was 38.6%.
On to `O=C(CCl)c1cc2c3c(c1)CC(=O)N3CCC2` [10-G16, 6-(2-chloroacetyl)-1-azatricyclo[6.3.1.0,4,12]dodeca-4(12),5,7-trien-2-one], for which the viability at 48 h, 25 µM was 1.58%.
For `N#CC(=Cc1ccco1)C(=O)Nc1cccc(Cn2cccn2)c1` [8-I20, 2-cyano-3-(furan-2-yl)-N-{3-[(1H-pyrazol-1-yl)methyl]phenyl}prop-2-enamide] the value was 82.1%; for `CC(Cl)C(=O)N(C)C1CCCc2c1cnn2C` (stereo not shown) [6-L16, 2-chloro-N-methyl-N-(1-methyl-4,5,6,7-tetrahydro-1H-indazol-4-yl)propanamide], 112%.
For `C=CC(=O)N(CC)CC(=O)N1CCc2[nH]nc(C(F)(F)F)c2C1` [3-A14, N-ethyl-N-{2-oxo-2-[3-(trifluoromethyl)-1H,4H,5H,6H,7H-pyrazolo[4,3-c]pyridin-5-yl]ethyl}prop-2-enamide] the value was 64.2%; for `C=CC(=O)N(C)CC(=O)N1CCn2cccc2C1C` (stereo not shown) [2-K10, N-methyl-N-(2-{1-methyl-1H,2H,3H,4H-pyrrolo[1,2-a]pyrazin-2-yl}-2-oxoethyl)prop-2-enamide], 101%.
For `O=C1C=CC(=O)N1c1cccc(O)c1` [10-O07, 1-(3-hydroxyphenyl)-2,5-dihydro-1H-pyrrole-2,5-dione], the viability at 48 h, 25 µM was 68.4%.
With `C=CC(=O)N(C)CC(=O)Nc1ccc(N2CCC(O)CC2)cc1` [3-P06, N-({[4-(4-hydroxypiperidin-1-yl)phenyl]carbamoyl}methyl)-N-methylprop-2-enamide], the viability at 48 h, 25 µM is 65.6%.
The value for `CC(Cl)C(=O)N1Cc2ccccc2OCC1C` (stereo not shown) [7-F11, 2-chloro-1-(3-methyl-2,3,4,5-tetrahydro-1,4-benzoxazepin-4-yl)propan-1-one] was 86.6%.
Turning to `CC(Cl)C(=O)Nc1ncc(C(F)(F)F)cc1Cl` (stereo not shown) [5-L22, 2-chloro-N-[3-chloro-5-(trifluoromethyl)pyridin-2-yl]propanamide], the viability at 48 h, 25 µM is 105%.
As to `C=CC(=O)N1CCOC(c2ccc(F)c(C)c2)C1` (stereo not shown) [3-A09, 1-[2-(4-fluoro-3-methylphenyl)morpholin-4-yl]prop-2-en-1-one], the viability at 48 h, 25 µM is 38.4%.

The values are drawn from article PMC11995724, “Antibiotic target discovery by integrated phenotypic and activity-based profiling of electrophilic fragments” (Cell chemical biology, 2025).
